Laboratory results from paper PMC12332164, “Synthesis and biological activity study of tanshinone I-pyridinium salt derivatives” (Natural Products and Bioprospecting, 2025).

Biological target: T1, PI3Kα (Homo sapiens, UniProt P42336)
T1 construct: gene PIK3CA
Assay: biochemical

T1 sequence (P42336 whole entry): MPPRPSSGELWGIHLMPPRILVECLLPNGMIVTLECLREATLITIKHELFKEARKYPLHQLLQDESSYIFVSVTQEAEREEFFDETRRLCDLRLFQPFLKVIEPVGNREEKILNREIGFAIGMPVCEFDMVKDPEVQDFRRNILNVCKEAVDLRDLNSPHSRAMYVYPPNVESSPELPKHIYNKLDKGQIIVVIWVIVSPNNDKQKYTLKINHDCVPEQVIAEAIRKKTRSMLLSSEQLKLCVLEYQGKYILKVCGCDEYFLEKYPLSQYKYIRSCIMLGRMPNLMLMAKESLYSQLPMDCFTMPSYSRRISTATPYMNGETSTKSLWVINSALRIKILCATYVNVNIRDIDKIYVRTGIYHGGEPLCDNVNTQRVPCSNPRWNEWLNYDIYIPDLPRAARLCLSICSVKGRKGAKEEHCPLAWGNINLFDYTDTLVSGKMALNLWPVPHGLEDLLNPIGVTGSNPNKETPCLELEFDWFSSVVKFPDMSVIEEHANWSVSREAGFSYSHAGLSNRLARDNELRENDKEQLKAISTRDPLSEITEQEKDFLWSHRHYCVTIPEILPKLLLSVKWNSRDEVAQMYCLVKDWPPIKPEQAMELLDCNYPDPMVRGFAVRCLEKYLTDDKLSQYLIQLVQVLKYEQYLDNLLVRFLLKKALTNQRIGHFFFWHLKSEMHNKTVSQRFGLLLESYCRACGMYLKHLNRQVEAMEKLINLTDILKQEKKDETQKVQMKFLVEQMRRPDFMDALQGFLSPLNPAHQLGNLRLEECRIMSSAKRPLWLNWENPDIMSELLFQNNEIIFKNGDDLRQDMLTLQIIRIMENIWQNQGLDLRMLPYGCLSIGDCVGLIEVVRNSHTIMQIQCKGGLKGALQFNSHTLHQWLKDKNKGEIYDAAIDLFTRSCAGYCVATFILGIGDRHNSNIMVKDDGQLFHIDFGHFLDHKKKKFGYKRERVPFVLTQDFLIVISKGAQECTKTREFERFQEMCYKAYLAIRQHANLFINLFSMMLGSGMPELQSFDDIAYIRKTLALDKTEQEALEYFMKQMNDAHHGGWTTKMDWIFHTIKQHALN
T1 sequence (P27986 2-724, further chain): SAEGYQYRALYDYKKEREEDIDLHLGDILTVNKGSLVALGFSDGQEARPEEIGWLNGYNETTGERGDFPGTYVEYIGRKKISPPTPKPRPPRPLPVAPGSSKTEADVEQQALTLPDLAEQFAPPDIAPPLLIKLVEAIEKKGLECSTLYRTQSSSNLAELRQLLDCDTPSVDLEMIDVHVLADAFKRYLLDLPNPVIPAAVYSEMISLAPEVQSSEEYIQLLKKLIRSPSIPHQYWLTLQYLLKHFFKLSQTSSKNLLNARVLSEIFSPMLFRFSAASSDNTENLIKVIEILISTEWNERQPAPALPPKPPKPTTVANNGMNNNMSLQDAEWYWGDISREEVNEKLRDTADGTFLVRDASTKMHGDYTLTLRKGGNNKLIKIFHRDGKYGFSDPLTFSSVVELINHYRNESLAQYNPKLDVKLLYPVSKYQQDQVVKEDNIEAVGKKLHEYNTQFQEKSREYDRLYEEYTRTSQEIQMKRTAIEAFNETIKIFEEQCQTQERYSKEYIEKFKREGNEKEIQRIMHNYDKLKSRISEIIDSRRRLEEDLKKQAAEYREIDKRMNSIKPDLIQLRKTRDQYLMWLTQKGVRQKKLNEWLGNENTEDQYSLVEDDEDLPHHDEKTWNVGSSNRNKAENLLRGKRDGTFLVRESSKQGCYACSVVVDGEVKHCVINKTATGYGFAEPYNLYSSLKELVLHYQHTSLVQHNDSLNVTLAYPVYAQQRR

Question: Cc1cccc2c1ccc1c3occ(C)c3c3[nH]c(-c4ccc[n+](CC(=O)c5ccc(Br)cc5)c4)nc3c21 [a4, 1-(2-(4-bromophenyl)-2-oxoethyl)-3-(1,6-dimethyl-12H-furo[2',3':1,2]phenanthro[3,4-d]imidazol-11-yl) pyridin-1-ium bromide] was tested. Which IC50 did it give?
Answer: Its IC50 is 9.24 ± 0.2 µM.
